Data on 19 molecules can be found in US20260347353A1, “INDOLIZINE DERIVATIVES FOR TREATING CANCER” (Antares Therapeutics, Inc., priority 2022, published 2026).

One assay relates to NUGC3 cells (p53 Y220C). The assay is described as follows: Cell Proliferation Assay (CellTiter-Glo), NUGC3 p53 Y220C. Conditions: Homo sapiens, NUGC-3, 120 h, 5 days, read-out: CTG NUGC3 P53 Y220C IC50. Format: cell-based. As to the method: (§1) Inducible p53 Y220C and R273H constructs (Tet-One inducible expression system; Takara) were stably expressed in NCIH1299 cells by lentiviral transduction. NUGC3, A549, BxPC3, T3M4, HuH7, HCC2935, MFE296, NCIH1299, NCIH1299-inducible p53 Y220C, and NCIH1299-inducible p53 R273H cell lines were used for cell proliferation assay. 250-500 cells were seeded in each well of 384 plate and then compounds were dispensed into each well using Echo or Tecan. After 5 days of incubation, equal volume of CellTiter-Glo reagent (G7570; Promega) was added into each well and the plate was incubated at room temperature for 10 minutes with shaking. The luminescent signal was measured by PheraStar microplate reader and IC50 was calculated.
(In general: Cellular ATP, detected with luciferase, serves as a proxy for viable cell number.)

Another assay deals with p53 Y220C (Homo sapiens, UniProt P04637, Y220C). The assay is described as follows: Luciferase Reporter Assay, p53 Y220C (NCIH1299 cells with inducible p53 Y220C and p53 response element-luciferase). The following applies: 6 hour compound treatment, read-out: Luc P53 Y220C AC50. Format: cell-based. The procedure:
Luciferase reporter (Luc) driven by p53 response element (LTV-p53-Luc (SKU #: LTLR007); G&P Biosciences) and inducible p53 Y220C construct (Tet-One inducible expression system; Takara) were stably expressed in NCIH1299 cells by lentiviral transduction. The cells were then used for p53 reporter assay. 5,000 cells were seeded in each well of 384 plate and cultured in 0.5 ug/mL doxycycline (D3072; Sigma) containing medium for 24 hours before compound treatment. After 6 hour of compound treatment, equal volume of One-Glo reagent (E6110; Promega) was added to each well and the plate was incubated for 5 minutes with shaking at room temperature. The luciferase activity was immediately measured with PheraStar microplate reader. Luciferase activity was stimulated by 10 uM of a tool compound as positive control and AC50 was calculated.

The subject of assay [1] is NCIH1299-inducible p53 Y220C cells. The assay is described as follows: Cell Proliferation Assay (CellTiter-Glo), NCIH1299-inducible p53 Y220C. Type of assay: cell-based. The following applies: Homo sapiens, NCI-H1299, 120 h, 5 days, read-out: CTG H1299 P53 Y220C IC50. As to the method: as §1
Assay [2] concerns the target T1, p53 Y220C mutant protein (amino acid residues 94-293) (Homo sapiens, UniProt P04637, Y220C).
T1 construct: p53 Y220C mutant protein (amino acid residues 94-293)
The assay is described as follows: Surface Plasmon Resonance (SPR) assay, p53 Y220C Kd_kinetic. The following applies: multi-cycle kinetics, 16 or 20 °C, pH 7.5, 1:1 binding model. As to the method: SPR experiments are performed on a Biacore 8K instrument. […] Compounds are 2-fold, 7-point serial diluted; the top concentration varies depending on the potency. Compound binding affinities are measured in the multi-cycle kinetics mode, at 30 μL/min flow rate with 60 seconds association time and 120 seconds dissociation time. The running buffer contains 50 mM Tris, pH 7.5, 100 mM NaCl, 1 mM DTT, 0.01% Brij35, 0.05% Tween-20 and 1% DMSO. The assay temperature is maintained at 16 or 20 °C and data are fit into the 1:1 binding model using the Biacore Insight Evaluation software.

T1 sequence (P04637 94-293, stated change not applied): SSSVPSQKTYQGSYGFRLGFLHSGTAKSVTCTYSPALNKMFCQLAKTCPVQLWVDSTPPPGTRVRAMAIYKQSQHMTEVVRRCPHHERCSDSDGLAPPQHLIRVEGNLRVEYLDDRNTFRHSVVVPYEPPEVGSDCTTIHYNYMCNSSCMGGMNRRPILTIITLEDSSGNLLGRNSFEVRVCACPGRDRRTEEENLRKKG

With `C[C@@H](NC(=O)C1CC1)c1nc(-c2cc3c(N[C@@H]4CCN(C)C[C@@H]4F)cccn3c2SC(F)(F)F)no1` (relative stereo) [Example 51, N-[(1R*)-1-[3-(8-{[(3S,4R)-3-fluoro-1-methylpiperidin-4-yl]amino}-3-[(trifluoromethyl)sulfanyl]indolizin-2-yl)-1,2,4-oxadiazol-5-yl]ethyl]cyclopropanecarboxamide], the half-maximal inhibitory concentration (IC50) (with NUGC3 cells (p53 Y220C); in assay [1]) was no less than 3000 nM in each case. For the same molecule, on p53 Y220C, the AC50 (as a rule, the concentration giving half of the maximal activity seen) was no less than 3000 nM. For the same molecule, in assay [2], the Kd (usually a measure of binding affinity in units of concentration) lay within 10 to 100 nM.
On to `CN1CC[C@@H](Nc2cccn3c(SC(F)(F)F)c(-c4noc(CNC(=O)c5cnn(C(C)(C)C)c5)n4)cc23)[C@@H](F)C1` [Example 2, 1-tert-butyl-N-{[3-(8-{[(3S,4R)-3-fluoro-1-methylpiperidin-4-yl]amino}-3-[(trifluoromethyl)sulfanyl]indolizin-2-yl)-1,2,4-oxadiazol-5-yl]methyl}pyrazole-4-carboxamide], for which the IC50 (in the assay with NUGC3 cells (p53 Y220C); in assay [1]) was less than 750 nM each time. The AC50 at p53 Y220C was less than 750 nM. In addition, the Kd in assay [2] is less than 10 nM.
In the case of `CN1CC[C@@H](Nc2cccn3c(SC(F)(F)F)c(-c4noc(CNC(=O)C5CC5)n4)cc23)[C@@H](F)C1` [Example 3, N-{[3-(8-{[(3S,4R)-3-fluoro-1-methylpiperidin-4-yl]amino}-3-[(trifluoromethyl)sulfanyl]indolizin-2-yl)-1,2,4-oxadiazol-5-yl]methyl}cyclopropanecarboxamide], the IC50 (in the assay on NUGC3 cells (p53 Y220C); in assay [1]) was less than 750 nM throughout. Moreover, the AC50 at p53 Y220C is less than 750 nM. The same molecule displayed a Kd in assay [2] of less than 10 nM.
`CN1CC[C@@H](Nc2cccn3c(SC(F)(F)F)c(-c4nsc(CNC(=O)C5CC5)n4)cc23)[C@@H](F)C1` [Example 4, N-{[3-(8-{[(3S,4R)-3-fluoro-1-methylpiperidin-4-yl]amino}-3-[(trifluoromethyl)sulfanyl]indolizin-2-yl)-1,2,4-thiadiazol-5-yl]methyl}cyclopropanecarboxamide]: the IC50 (in the assay on NUGC3 cells (p53 Y220C); in assay [1]) was no less than 3000 nM each time. Further, at p53 Y220C, the concentration at half-maximal activity (AC50) is no less than 3000 nM. This molecule also displayed a Kd in assay [2] of 10 to 100 nM.
Consider `CN1CC[C@@H](Nc2cccn3c(SC(F)(F)F)c(-c4nsc(CNC(=O)c5cnn(C(C)(C)C)c5)n4)cc23)[C@@H](F)C1` [Example 5, 1-tert-butyl-N-{[3-(8-{[(3S,4R)-3-fluoro-1-methylpiperidin-4-yl]amino}-3-[(trifluoromethyl)sulfanyl]indolizin-2-yl)-1,2,4-thiadiazol-5-yl]methyl}pyrazole-4-carboxamide], for which the IC50 (in the assay with NUGC3 cells (p53 Y220C); in assay [1]) was no less than 3000 nM in each case. Moreover, the AC50 on p53 Y220C is no less than 3000 nM. The molecule also yielded a Kd in assay [2] of 100 to 1000 nM.
With `CN1CC[C@@H](Nc2cccn3c(SC(F)(F)F)c(-c4nsc(CNC(=O)c5ccn(C(C)(C)C)c5)n4)cc23)[C@@H](F)C1` [Example 6, 1-tert-butyl-N-{[3-(8-{[(3S,4R)-3-fluoro-1-methylpiperidin-4-yl]amino}-3-[(trifluoromethyl)sulfanyl]indolizin-2-yl)-1,2,4-thiadiazol-5-yl]methyl}pyrrole-3-carboxamide], the IC50 (in the assay with NUGC3 cells (p53 Y220C); in assay [1]) was no less than 3000 nM throughout. Moreover, the AC50 at p53 Y220C is no less than 3000 nM. This molecule also registered a Kd in assay [2] of no less than 1000 nM.
Consider `CN1CC[C@@H](Nc2cccn3c(SC(F)(F)F)c(-c4noc(CNC(=O)c5ccn(C(C)(C)C)c5)n4)cc23)[C@@H](F)C1` [Example 7, 1-tert-butyl-N-{[3-(8-{[(3S,4R)-3-fluoro-1-methylpiperidin-4-yl]amino}-3-[(trifluoromethyl)sulfanyl]indolizin-2-yl)-1,2,4-oxadiazol-5-yl]methyl}pyrrole-3-carboxamide], for which the IC50 (with NUGC3 cells (p53 Y220C); in assay [1]) was less than 750 nM each time. Moreover, the AC50 at p53 Y220C was less than 750 nM. Also, the Kd in assay [2] was less than 10 nM.
Consider `CN1CC[C@@H](Nc2cccn3c(SC(F)(F)F)c(-c4noc(CNC(=O)C5CC(O)C5)n4)cc23)[C@@H](F)C1` (stereo partly drawn) [Example 8, (1r,3r)-N-{[3-(8-{[(3S,4R)-3-fluoro-1-methylpiperidin-4-yl]amino}-3-[(trifluoromethyl)sulfanyl]indolizin-2-yl)-1,2,4-oxadiazol-5-yl]methyl}-3-hydroxycyclobutane-1-carboxamide], for which the IC50 (as a rule, the midpoint of a concentration-inhibition curve) was in the range of 1500 to 3000 nM in the assay with NUGC3 cells (p53 Y220C) and 750 to 1500 nM in assay [1]. Moreover, the AC50 on p53 Y220C fell in the range of 1500 to 3000 nM. The Kd in assay [2] is less than 10 nM.
Take `CN1CC[C@@H](Nc2cccn3c(SC(F)(F)F)c(-c4noc(CNC(=O)C5CC(F)(F)C5)n4)cc23)[C@@H](F)C1` [Example 10, 3,3-difluoro-N-{[3-(8-{[(3S,4R)-3-fluoro-1-methylpiperidin-4-yl]amino}-3-[(trifluoromethyl)sulfanyl]indolizin-2-yl)-1,2,4-oxadiazol-5-yl]methyl}cyclobutane-1-carboxamide]: the IC50 (in the assay with NUGC3 cells (p53 Y220C); in assay [1]) was no less than 3000 nM each time. For the same molecule, on p53 Y220C, the AC50 is 1500 to 3000 nM.
Regarding `CN1CC[C@@H](Nc2cccn3c(SC(F)(F)F)c(-c4noc(CNC(=O)C5(NC(=O)OC(C)(C)C)CC5)n4)cc23)[C@@H](F)C1` [Example 22, tert-butyl N-[1-({[3-(8-{[(3S,4R)-3-fluoro-1-methylpiperidin-4-yl]amino}-3-[(trifluoromethyl)sulfanyl]indolizin-2-yl)-1,2,4-oxadiazol-5-yl]methyl}carbamoyl)cyclopropyl]carbamate], the values for the IC50 (in the assay with NUGC3 cells (p53 Y220C); in assay [1]) were 1500 to 3000 nM and no less than 3000 nM, respectively. In addition, the AC50 at p53 Y220C was no less than 3000 nM.
Take `CN1CC[C@@H](Nc2cccn3c(SC(F)(F)F)c(-c4noc(CNC(=O)C5(C#N)CC5)n4)cc23)[C@@H](F)C1` [Example 28, 1-cyano-N-{[3-(8-{[(3S,4R)-3-fluoro-1-methylpiperidin-4-yl]amino}-3-[(trifluoromethyl)sulfanyl]indolizin-2-yl)-1,2,4-oxadiazol-5-yl]methyl}cyclopropane-1-carboxamide]: the IC50 (in the assay on NUGC3 cells (p53 Y220C); in assay [1]) was less than 750 nM each time. At p53 Y220C, the AC50 was less than 750 nM.
As to `CNC(=O)c1coc(NCc2nc(-c3cc4c(N[C@@H]5CCN(C)C[C@@H]5F)cccn4c3SC(F)(F)F)no2)n1` [Example 81], the IC50 in the assay on NUGC3 cells (p53 Y220C) is 750 to 1500 nM. Further, the AC50 at p53 Y220C was less than 750 nM. Besides, the Kd in assay [2] was less than 10 nM.
On the same counts, the results for `CN1CC[C@@H](Nc2cccn3c(SC(F)(F)F)c(-c4noc(CNC(=O)c5nnc(N(C)C)s5)n4)cc23)[C@@H](F)C1` [Example 82] are less than 750 nM, less than 750 nM and less than 10 nM.
Consider `CN1CC[C@@H](Nc2cccn3c(SC(F)(F)F)c(-c4cnc(CNC(=O)C5CC5)o4)cc23)[C@@H](F)C1` [Example 84], for which the IC50 with NUGC3 cells (p53 Y220C) is no less than 3000 nM. Moreover, on p53 Y220C, the AC50 is no less than 3000 nM. This molecule also returned a Kd in assay [2] of 10 to 100 nM.
Consider `CN1CC[C@@H](Nc2cccn3c(SC(F)(F)F)c(-c4noc(CNC(=O)c5cnn(C)c5)n4)cc23)[C@@H](F)C1` [Example 85], for which the IC50 in the assay with NUGC3 cells (p53 Y220C) is less than 750 nM. Further, on p53 Y220C, the AC50 was less than 750 nM. For the same molecule, the Kd in assay [2] was less than 10 nM.
`CN1CC[C@@H](Nc2cccn3c(SC(F)(F)F)c(-c4cc(CNC(=O)c5cnn(C(C)(C)C)c5)no4)cc23)[C@@H](F)C1` [Example 89]: the IC50 in the assay on NUGC3 cells (p53 Y220C) is less than 750 nM. In addition, the AC50 at p53 Y220C is less than 750 nM. In assay [2], this molecule displayed a Kd of less than 10 nM.
For the molecule `CN1CC[C@@H](Nc2cccn3c(SC(F)(F)F)c(-c4noc(CNC(=O)c5nsc(N(C)C)n5)n4)cc23)[C@@H](F)C1` [Example 93], in the assay with NUGC3 cells (p53 Y220C), the 50% inhibitory concentration (IC50) was less than 750 nM. For the same molecule, the AC50 on p53 Y220C is less than 750 nM. In assay [2], this molecule returned a Kd of less than 10 nM.
`CN1CC[C@@H](Nc2cccn3c(SC(F)(F)F)c(-c4noc(CNC(=O)c5ccn(C6(C)CCOCC6)c5)n4)cc23)[C@@H](F)C1` [Example 94]: the IC50 in the assay on NUGC3 cells (p53 Y220C) was less than 750 nM. Also, the AC50 on p53 Y220C is less than 750 nM. Moreover, the Kd in assay [2] is less than 10 nM.
For the molecule `Cc1noc(C(=O)NCc2nc(-c3cc4c(N[C@@H]5CCN(C)C[C@@H]5F)cccn4c3SC(F)(F)F)no2)n1` [Example 98], the IC50 with NUGC3 cells (p53 Y220C) was 750 to 1500 nM. Also, the concentration at half-maximal activity (AC50) at p53 Y220C lay within 750 to 1500 nM. The molecule further displayed a Kd in assay [2] of less than 10 nM.
